TGI and GI50 data for 13 molecules are collected here from PubChem BioAssay (NCI).

Among the test systems are CCRF-CEM leukemia; SR leukemia; EKVX NSCLC; HCT-15 colon; NCI-H226 lung; NCI-H460 lung; SF-268 CNS; SF-295 CNS; NCI-H522 lung; SNB-75 CNS.
Holding throughout (experiment): NCI anticancer screen, dose series, 48 h

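The compound was tested at five concentrations on cells cultured in 96-well plates, with a 48-hour exposure period. GI50 = concentration required for 50% inhibition of growth. The concentration for full growth arrest is given as TGI.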

With `CC(C)(C)c1cc(CCC(=O)Nc2ccc(Cl)cc2Cl)nc(N)n1`, the TGI in the experiment on CCRF-CEM leukemia, in the experiment on SR leukemia, in the experiment with EKVX NSCLC, with HCT-15 colon, with NCI-H226 lung and with NCI-H460 lung was > 100 µM in each case. The TGI with SF-268 CNS and in the experiment on SF-295 CNS was > 100 µM each time.
Consider `C[N+](C)=c1nc(N2CCOCC2)ss1`, for which the TGI with CCRF-CEM leukemia, with SR leukemia, in the experiment on EKVX NSCLC, in the experiment on HCT-15 colon, in the experiment on NCI-H226 lung and in the experiment with NCI-H460 lung was > 100 µM throughout. In addition, the TGI with SF-268 CNS, with NCI-H522 lung and in the experiment with SF-295 CNS was > 100 µM throughout.
As for `COc1ccc(CC2=NCCc3cc(OC)c(OC)cc32)cc1Br`, the TGI in the experiment on CCRF-CEM leukemia was > 100 µM; in the experiment on SR leukemia, 91.1 µM; in the experiment on EKVX NSCLC, > 100 µM; in the experiment with NCI-H226 lung, 50.9 µM; in the experiment on NCI-H460 lung it was > 100 µM; with SF-268 CNS it was > 100 µM. In addition, the TGI in the experiment with NCI-H522 lung came to 86.6 µM; with SF-295 CNS it was 30.4 µM.
Turning to `CC1(C)CC(=O)c2c(oc3cc(O)c(O)cc23)C1`, the TGI in the experiment with SNB-75 CNS was > 100 µM; with CCRF-CEM leukemia, 92 µM; with SR leukemia, > 100 µM; in the experiment with HCT-15 colon, > 100 µM; with NCI-H460 lung, 85 µM; with SF-268 CNS, > 100 µM. Further, the TGI with NCI-H522 lung was 24.3 µM; with SF-295 CNS, > 100 µM.
For `COc1ccc(NC(=O)c2sc3nc4c(cc3c2N)CCCC4)cc1`, the GI50 was 0.342 µM in the experiment on SNB-75 CNS; 0.322 µM in the experiment on CCRF-CEM leukemia; 0.3 µM with SR leukemia; 1.13 µM in the experiment with EKVX NSCLC; 0.471 µM with HCT-15 colon; 0.543 µM in the experiment with NCI-H460 lung. The GI50 in the experiment on SF-268 CNS is 0.899 µM; in the experiment on NCI-H522 lung, 0.234 µM; with SF-295 CNS, 0.314 µM. Also, the TGI in the experiment on SNB-75 CNS is 11.6 µM; in the experiment with CCRF-CEM leukemia it was > 100 µM; with SR leukemia, 16.3 µM; with EKVX NSCLC it was > 100 µM; with HCT-15 colon, > 100 µM; in the experiment with NCI-H460 lung, 19.8 µM. Besides, the TGI in the experiment on SF-268 CNS is > 100 µM; in the experiment on NCI-H522 lung, 0.772 µM; in the experiment with SF-295 CNS, 20.2 µM.
On to `c1ccc(NC[Si]23OCCN(CCO2)CCO3)cc1`, for which the TGI with SNB-75 CNS, in the experiment on CCRF-CEM leukemia, in the experiment on SR leukemia, in the experiment with EKVX NSCLC, with NCI-H226 lung and in the experiment with NCI-H460 lung was > 100 µM each time. Further, the TGI with SF-268 CNS, in the experiment on NCI-H522 lung and with SF-295 CNS was > 100 µM each time.
Consider `NC(=O)c1c[se]c(C2OC(COP(=O)(O)CP(=O)(O)OCC3OC(n4cnc5c(N)ncnc54)C(O)C3O)C(O)C2O)n1` (stereo unspecified), for which the TGI in the experiment on SNB-75 CNS, with CCRF-CEM leukemia, in the experiment with SR leukemia, in the experiment on EKVX NSCLC, in the experiment with NCI-H226 lung and in the experiment with NCI-H460 lung was > 100 µM each time. In addition, the TGI with SF-268 CNS, with NCI-H522 lung and with SF-295 CNS was > 100 µM throughout.
As for `COC(=O)C1(F)C(=O)NC(=O)NC1OC` (stereo unspecified), the TGI with SNB-75 CNS, with CCRF-CEM leukemia, in the experiment on SR leukemia, in the experiment with HCT-15 colon, with NCI-H226 lung and in the experiment on NCI-H460 lung was > 100 µM in each case. For the same molecule, the TGI in the experiment on SF-268 CNS, in the experiment on NCI-H522 lung and in the experiment with SF-295 CNS was > 100 µM throughout.
With `NS(=O)(=O)c1ccc(NC(=O)c2cccn3c(=O)c4ccccc4nc23)cc1`, the TGI in the experiment with SNB-75 CNS, in the experiment with CCRF-CEM leukemia, with SR leukemia, in the experiment with EKVX NSCLC, with NCI-H226 lung and in the experiment on NCI-H460 lung was > 100 µM in each case. The TGI in the experiment on SF-268 CNS, with NCI-H522 lung and with SF-295 CNS was > 100 µM in each case.
For the molecule `COc1cc([C@H]2c3[nH]c4ccccc4c3C[C@H]3COC(=O)N32)cc(OC)c1O`, the TGI in the experiment with SNB-75 CNS came out at 3.2 µM; in the experiment with CCRF-CEM leukemia, 12.4 µM; in the experiment on SR leukemia, 0.285 µM; with EKVX NSCLC, 22.7 µM; with HCT-15 colon it was 38.5 µM; in the experiment with NCI-H226 lung, 28.5 µM. The TGI with NCI-H460 lung was 23.2 µM; in the experiment on SF-268 CNS, > 72.1 µM; with SF-295 CNS, 81.8 µM.
For `COC(=O)c1cc2c3c(ccc2[nH]1)N(C(=O)c1cc2c4c(ccc2[nH]1)N(C(=O)c1cc2c5c(ccc2[nH]1)N(C(N)=O)CC5)CC4)CC3`, the TGI is > 51.2 µM in the experiment on CCRF-CEM leukemia; > 100 µM with SR leukemia; > 100 µM in the experiment on EKVX NSCLC; > 100 µM in the experiment with HCT-15 colon; 5.76 µM in the experiment with NCI-H226 lung; > 100 µM in the experiment with NCI-H460 lung. In addition, the figures for the TGI with SF-268 CNS and in the experiment with SF-295 CNS were > 100 µM and 44 µM, respectively.
For `Nc1ccn([C@@H]2C(F)=C(CO)[C@@H](O)[C@H]2O)c(=O)n1`, the GI50 with SNB-75 CNS was 9.94 µM; in the experiment with SR leukemia it was 0.443 µM; with EKVX NSCLC it was 26.8 µM; in the experiment with HCT-15 colon it was 0.545 µM; in the experiment on NCI-H226 lung, 11.5 µM; in the experiment with NCI-H460 lung it was 0.384 µM. Besides, the values for the GI50 with SF-268 CNS, in the experiment on NCI-H522 lung and with SF-295 CNS were 1.53 µM, 0.45 µM and 4.2 µM, respectively. Moreover, the TGI in the experiment on SNB-75 CNS, with SR leukemia, in the experiment on EKVX NSCLC, with HCT-15 colon, with NCI-H226 lung and in the experiment on NCI-H460 lung was > 100 µM in each case. Moreover, the TGI in the experiment on SF-268 CNS, with NCI-H522 lung and in the experiment on SF-295 CNS was > 100 µM in each case.
Regarding `CC1(C)OC(COCCOCCCCCO)C(COCCOCCCCCO)O1` (stereo unspecified), the TGI in the experiment on SNB-75 CNS, in the experiment with SR leukemia, in the experiment on EKVX NSCLC, in the experiment on HCT-15 colon, with NCI-H226 lung and in the experiment with NCI-H460 lung was > 100 µM each time. Also, the TGI in the experiment with SF-268 CNS, in the experiment with NCI-H522 lung and in the experiment on SF-295 CNS was > 100 µM throughout.
